These results are taken from ChEMBL document CHEMBL3044757, “Design, synthesis and in vitro antimicrobial activity of novel phenylbenzamido-aminothiazole-based azasterol mimics” (2013).

Broadly, the MIC is the least concentration at which growth counts as inhibited. A word on the inhibition: it is the drop in the measured response relative to a control, in per cent.

Type in all cases: functional
For assay [1], the system named is Fusarium oxysporum. The experiment in a line: Antifungal activity against Fusarium oxysporum assessed as inhibition of fungal spore germination after 24 hr by compound microscopic analysis relative to nystatin.
The next assay has as its system Escherichia coli. As to the kind of experiment: Antibacterial activity against Escherichia coli assessed as growth inhibition after 18 to 24 hr by resazurin assay. (In general: Alamar Blue is a resazurin reagent that responds to reducing activity.)
The test system of assay [2] is Alternaria alternata. The experiment in a line: Antifungal activity against Alternaria alternata assessed as inhibition of fungal spore germination after 24 hr by compound microscopic analysis relative to nystatin.
For assay [3], the system named is Curvularia lunata. As to the kind of experiment: Antifungal activity against Curvularia lunata assessed as inhibition of fungal spore germination after 24 hr by compound microscopic analysis relative to nystatin.
In a further assay the test system is Enterobacter cloacae. The experiment in a line: Antibacterial activity against Enterobacter cloacae assessed as growth inhibition after 18 to 24 hr by resazurin assay.
The test system of the next assay is Bacillus licheniformis. The experiment in a line: Antibacterial activity against Bacillus licheniformis assessed as growth inhibition after 18 to 24 hr by resazurin assay.
Assay [4] has as its system Alternaria alternata. The experiment in a line: Antifungal activity against Alternaria alternata assessed as inhibition of fungal spore germination after 24 hr by compound microscopic analysis relative to control.
The subject of assay [5] is Curvularia lunata. As to the kind of experiment: Antifungal activity against Curvularia lunata assessed as inhibition of fungal spore germination after 24 hr by compound microscopic analysis relative to control.
For assay [6], the system named is Fusarium oxysporum. As to the kind of experiment: Antifungal activity against Fusarium oxysporum assessed as inhibition of fungal spore germination after 24 hr by compound microscopic analysis relative to control.
Assay [7] deals with Mycobacterium tuberculosis. The experiment in a line: Antibacterial activity against Mycobacterium tuberculosis H37Rv assessed as growth inhibition after 5 days by microplate Alamar blue assay. Particulars: 120 h.
[8] abbreviates: dose or concentration not given here.

In brackets after ≈: the same amount, converted by molar mass. Activity calls are given as the source filed them. The calls are words filed in the database; no cut-off is given here.

For `Nc1nc(-c2ccc(NC(=O)c3ccccc3)cc2)c(/N=N/c2ccccc2Cl)s1`, the “fold change (FC)” value in the assay with Fusarium oxysporum [1] came out at 1.17; in the assay with Alternaria alternata [2] it was 1.8; in the assay with Curvularia lunata [3], 1.73. Besides, the MIC with Escherichia coli stood at 125 µg/mL (≈ 288 µM); in the assay with Enterobacter cloacae, 250 µg/mL (≈ 576 µM); with Bacillus licheniformis it was 0.125 µg/mL (≈ 0.288 µM).

For `Nc1nc(-c2ccc(NC(=O)c3ccccc3)cc2)c(/N=N/c2ccc(Br)cc2)s1`, the “fold change (FC)” value is on record as 2.07 in the assay with Fusarium oxysporum [1] and 1.11 in the assay on Alternaria alternata [2]. The minimal inhibitory concentration (MIC) was 250 µg/mL (≈ 523 µM) in the assay with Escherichia coli, 250 µg/mL (≈ 523 µM) with Enterobacter cloacae and 0.25 µg/mL (≈ 0.523 µM) in the assay with Bacillus licheniformis.

Consider `Cc1ccc(/N=N/c2sc(N)nc2-c2ccc(NC(=O)c3ccccc3)cc2)cc1`, for which the inhibition result in the assay with Alternaria alternata [4], in the assay with Curvularia lunata [5] and with Fusarium oxysporum [6] was “inactive” each time. The MIC with Escherichia coli is 125 µg/mL (≈ 302 µM); in the assay on Enterobacter cloacae, 250 µg/mL (≈ 605 µM); in the assay with Bacillus licheniformis, 0.125 µg/mL (≈ 0.302 µM).

For `Nc1nc(-c2ccc(NC(=O)c3ccccc3)cc2)c(/N=N/c2ccccc2)s1`, the inhibition result in the assay with Alternaria alternata [4], in the assay on Curvularia lunata [5] and in the assay on Fusarium oxysporum [6] was “inactive” throughout. Besides, the minimum inhibitory concentration (MIC) in the assay with Escherichia coli was 62.5 µg/mL (≈ 156 µM); in the assay on Enterobacter cloacae it was 250 µg/mL (≈ 626 µM); in the assay on Bacillus licheniformis it was 0.25 µg/mL (≈ 0.626 µM).

Consider `Nc1nc(-c2ccc(NC(=O)c3ccccc3)cc2)c(/N=N/c2ccccc2[N+](=O)[O-])s1`, for which the entries for the “fold change (FC)” value in the assay on Fusarium oxysporum [1] and with Alternaria alternata [2] were 1.49 and 1.71, respectively. Besides, the figures for the MIC in the assay with Escherichia coli, with Enterobacter cloacae and in the assay on Bacillus licheniformis were 125 µg/mL (≈ 281 µM), 250 µg/mL (≈ 562 µM) and 0.125 µg/mL (≈ 0.281 µM), respectively.

Turning to `COc1ccc(/N=N/c2sc(N)nc2-c2ccc(NC(=O)c3ccccc3)cc2)cc1`, the inhibition entry with Alternaria alternata [4], in the assay on Curvularia lunata [5] and in the assay on Fusarium oxysporum [6] was “inactive” each time. In addition, the minimum inhibitory concentration (MIC) in the assay with Escherichia coli was 7.8 µg/mL (≈ 18.2 µM); with Enterobacter cloacae, 250 µg/mL (≈ 582 µM); in the assay with Bacillus licheniformis, 0.125 µg/mL (≈ 0.291 µM).

For `O=C(N[C@H](CO)[C@H](O)c1ccc([N+](=O)[O-])cc1)C(Cl)Cl` [CHLORAMPHENICOL], the values for the MIC with Escherichia coli, with Enterobacter cloacae and with Bacillus licheniformis were 3.9 µg/mL (≈ 12.1 µM), 3.9 µg/mL (≈ 12.1 µM) and 0.0039 µg/mL (≈ 0.0121 µM), respectively.

On to `Nc1nc(-c2ccc(NC(=O)c3ccccc3)cc2)c(/N=N/c2cccc([N+](=O)[O-])c2)s1`, for which the inhibition entry with Alternaria alternata [4], in the assay on Curvularia lunata [5] and in the assay with Fusarium oxysporum [6] was “inactive” in each case. Moreover, the minimal inhibitory concentration (MIC) turned out to be 62.5 µg/mL (≈ 141 µM) in the assay on Escherichia coli, 250 µg/mL (≈ 562 µM) in the assay with Enterobacter cloacae and 0.0625 µg/mL (≈ 0.141 µM) in the assay with Bacillus licheniformis.

For the compound `Nc1nc(-c2ccc(NC(=O)c3ccccc3)cc2)c(/N=N/c2cccc(Cl)c2)s1`, the inhibition entry with Alternaria alternata [4], in the assay on Curvularia lunata [5] and with Fusarium oxysporum [6] was “inactive” in each case. The minimal inhibitory concentration (MIC) with Escherichia coli is 250 µg/mL (≈ 576 µM); in the assay on Enterobacter cloacae it was 250 µg/mL (≈ 576 µM); in the assay with Bacillus licheniformis it was 0.125 µg/mL (≈ 0.288 µM).

For `Nc1nc(-c2ccc(NC(=O)c3ccccc3)cc2)c(/N=N/c2ccc([N+](=O)[O-])cc2)s1`, the minimal inhibitory concentration (MIC) was determined as 62.5 µg/mL (≈ 141 µM) in the assay with Escherichia coli, 125 µg/mL (≈ 281 µM) in the assay on Enterobacter cloacae and 0.0312 µg/mL (≈ 0.0703 µM) with Bacillus licheniformis.

For the compound NYSTATIN, the inhibition in the assay on Alternaria alternata [4] (setting [8]), in the assay with Curvularia lunata [5] (setting [8]) and in the assay with Fusarium oxysporum [6] (setting [8]) was 100% throughout.

As for `Nc1nc(-c2ccc(NC(=O)c3ccccc3)cc2)cs1`, the MIC in assay [7] amounted to 16 µg/mL (≈ 54.2 µM); with Escherichia coli, 7.8 µg/mL (≈ 26.4 µM); with Enterobacter cloacae, 250 µg/mL (≈ 846 µM); with Bacillus licheniformis, 0.125 µg/mL (≈ 0.423 µM). Moreover, the “fold change (FC)” value in the assay with Alternaria alternata [2] was 1.31; in the assay on Curvularia lunata [3] it was 1.06.

For `Nc1nc(-c2ccc(NC(=O)c3ccccc3)cc2)c(/N=N/c2ccc(Cl)cc2)s1`, the inhibition result in the assay with Alternaria alternata [4], in the assay with Curvularia lunata [5] and with Fusarium oxysporum [6] was “inactive” in each case. The MIC turned out to be 250 µg/mL (≈ 576 µM) in the assay with Escherichia coli, 250 µg/mL (≈ 576 µM) in the assay with Enterobacter cloacae and 0.125 µg/mL (≈ 0.288 µM) in the assay on Bacillus licheniformis.
